Test results published in patent US6855710B2, “Substituted indolines with an inhibitory effect on various kinases and complexes of CDKs” (Boehringer Ingelheim Pharma KG, priority 1998, dated 2005).

Row | Compound | melting point
1 | CN(C)CCN(C)C(=O)CN(c1ccc(N/C(=C2\C(=O)Nc3ccc([N+](=O)[O-])cc32)c2ccccc2)cc1)S(C)(=O)=O [Example 294, (Z)-3-{1-[4-(N—((N-(2-dimethylaminoethyl)-N-methyl-amino)-carbonylmethyl)-N-methylsulphonyl-amino)-phenylamino]-1-phenyl-methylidene}-5-nitro-2-indolinone] | 138 to 140 °C
2 | CC(=O)N(C)c1cccc(N/C(=C2\C(=O)Nc3ccccc32)c2ccccc2)c1 [Example 38, (Z)-3-{1-[3-(N-acetyl-N-methylamino)-phenylamino]-1-phenyl-methylidene}-2-indolinone] | 237 to 239 °C
3 | CCOC(=O)CNCCc1ccc(N/C(=C2\C(=O)Nc3ccc([N+](=O)[O-])cc32)c2ccccc2)cc1 [Example 178, (Z)-3-{1-[4-(2-ethoxycarbonylmethylamino-ethyl)-phenylamino]-1-phenyl-methylidene}-5-nitro-2-indolinone] | 139 to 140 °C
4 | COc1cccc(N/C(=C2\C(=O)Nc3ccccc32)c2ccccc2)c1 [Example 3, (Z)-3-[1-(3-methoxy-phenylamino)-1-phenyl-methylidene]-2-indolinone] | 218 to 221 °C
5 | CN(C)C(=O)C1CCN(CCc2ccc(N/C(=C3\C(=O)Nc4ccc([N+](=O)[O-])cc43)c3ccccc3)cc2)CC1 [Example 264, (Z)-3-{1-[4-(2-(4-dimethylaminocarbonyl-piperidino)-ethyl)-phenylamino]-1-phenyl-methylidene}-5-nitro-2-indolinone] | 288 °C (dec.)
6 | COCCNCc1ccc(N/C(=C2\C(=O)Nc3ccc([N+](=O)[O-])cc32)c2ccccc2)cc1 [Example 174, (Z)-3-{1-[4-(2-methoxyethylaminomethyl)-phenylamino]-1-phenyl-methylidene}-5-nitro-2-indolinone] | 184 to 185 °C
7 | CCN(CC)CC(=O)N(C)c1ccc(N/C(=C2\C(=O)Nc3ccccc32)c2ccccc2)cc1 [Example 49, (Z)-3-{1-[4-(N-Diethylaminomethylcarbonyl-N-methyl-amino)-phenylamino]-1-phenyl-methylidene}-2-indolinone] | 242 to 247 °C
8 | COc1ccc(N/C(=C2\C(=O)Nc3ccccc32)c2ccccc2)cc1 [Example 2, (Z)-3-[1-(4-methoxy-phenylamino)-1-phenyl-methylidene]-2-indolinone] | 267 to 270 °C
9 | O=C1Nc2ccc([N+](=O)[O-])cc2/C1=C(/Nc1ccc(CN2CCC2)cc1)c1ccccc1 [Example 273, (Z)-3-{1-[4-(Azetidin-1-yl-methyl)-phenylamino]-1-phenyl-methylidene}-5-nitro-2-indolinone] | 228 to 229 °C
10 | CC(=O)Nc1cccc(N/C(=C2\C(=O)Nc3ccc([N+](=O)[O-])cc32)c2ccccc2)c1 [Example 89, (Z)-3-[1-(3-acetylamino-phenylamino)-1-phenyl-methylidene]-5-nitro-2-indolinone] | 318 to 320 °C (dec.)
11 | O=C1Nc2ccc([N+](=O)[O-])cc2/C1=C(/Nc1ccc(CN2CCCCCC2)cc1)c1ccccc1 [Example 119, (Z)-3-[1-(4-hexamethyleneiminomethyl-phenylamino)-1-phenyl-methylidene]-5-nitro-2-indolinone] | 220 °C
12 | CN1CCN(Cc2cccc(N/C(=C3\C(=O)Nc4ccc([N+](=O)[O-])cc43)c3ccccc3)c2)CC1 [Example 110, (Z)-3-{1-[3-(4-methylpiperazinomethyl)-phenylamino]-1-phenyl-methylidene}-5-nitro-2-indolinone] | 256 to 258 °C
13 | O=C1Nc2ccc([N+](=O)[O-])cc2/C1=C(/Nc1cccc(CN2CCCCC2)c1)c1ccccc1 [Example 108, (Z)-3-[1-(3-piperidinomethyl-phenylamino)-1-phenyl-methylidene]-5-nitro-2-indolinone] | 214 to 215 °C
14 | CCN(CC)CCc1ccc(N/C(=C2\C(=O)Nc3ccc([N+](=O)[O-])cc32)c2ccccc2)cc1 [Example 130, (Z)-3-{1-[4-(2-diethylamino-ethyl)-phenylamino]-1-phenyl-methylidene}-5-nitro-2-indolinone] | 167 to 168 °C
15 | CC(C)(C)OC(=O)NC(Cc1ccc(N/C(=C2\C(=O)Nc3ccc([N+](=O)[O-])cc32)c2ccccc2)cc1)C(=O)O (stereo not drawn) [Example 226, (Z)-3-{1-[4-(2-tert.butoxycarbonylamino-2-carboxy-ethyl)-phenylamino]-1-phenyl-methylidene}-5-nitro-2-indolinone] | 235 °C (dec.)
16 | NC(=O)C1CCN(Cc2ccc(N/C(=C3\C(=O)Nc4ccc([N+](=O)[O-])cc43)c3ccccc3)cc2)CC1 [Example 247, (Z)-3-{1-[4-(4-aminocarbonyl-piperidinomethyl)-phenylamino]-1-phenyl-methylidene}-5-nitro-2-indolinone] | 296 to 297 °C
17 | Cc1cccc(N/C(=C2\C(=O)Nc3ccccc32)c2ccccc2)c1 [Example 6, (Z)-3-[1-(3-methyl-phenylamino)-1-phenyl-methylidene]-2-indolinone] | 218 to 220 °C

Second part, the compound after the results:

Row | melting point | Compound
18 | 280 °C | CN(C)S(=O)(=O)c1ccc(N/C(=C2\C(=O)Nc3ccccc32)c2ccccc2)cc1 [Example 405, (Z)-3-{1-[4-(dimethylaminosulphonyl)-phenylamino]-1-phenyl-methylidene}-2-indolinone]
19 | 257 °C | O=C1Nc2ccccc2/C1=C(/Nc1ccc(NCCN2CCOCC2)cc1)c1ccccc1 [Example 346, (Z)-3-{1-[4-(2-morpholinoethylamino)-phenylamino]-1-phenyl-methylidene}-2-indolinone]
20 | 259 °C | CCS(=O)(=O)N(CC(N)=O)c1ccc(N/C(=C2\C(=O)Nc3ccccc32)c2ccccc2)cc1 [Example 299, (Z)-3-{1-[4-(N-aminocarbonylmethyl-N-ethylsulphonyl-amino)-phenylamino]-1-phenyl-methylidene}-2-indolinone]
21 | 178 to 180 °C | CCOC(=O)CN(C)S(=O)(=O)c1ccc(N/C(=C2\C(=O)Nc3ccccc32)c2ccccc2)cc1 [Example 408, (Z)-3-{1-[4-(N-ethoxycarbonylmethyl-N-methyl-aminosulphonyl)-phenylamino]-1-phenyl-methylidene}-2-indolinone]
22 | 228 °C | CCCC(=O)N(CCN1CCOCC1)c1ccc(N/C(=C2\C(=O)Nc3ccc([N+](=O)[O-])cc32)c2ccccc2)cc1 [Example 337, (Z)-3-{1-[4-(N-(2-morpholinoethyl)-N-propylcarbonyl-amino)-phenylamino]-1-phenyl-methylidene}-5-nitro-2-indolinone]
23 | 229 °C | CC(=O)N(CCN1CCOCC1)c1ccc(N/C(=C2\C(=O)Nc3ccc([N+](=O)[O-])cc32)c2ccccc2)cc1 [Example 334, (Z)-3-{1-[4-(N-(2-morpholinoethyl)-N-acetyl-amino)-phenylamino]-1-phenyl-methylidene}-5-nitro-2-indolinone]
24 | 222 to 224 °C | CCS(=O)(=O)N(CCN1CCOCC1)c1ccc(N/C(=C2\C(=O)Nc3ccccc32)c2ccccc2)cc1 [Example 308, (Z)-3-{1-[4-(N-(2-morpholinoethyl)-N-ethylsulphonyl-amino)-phenylamino]-1-phenyl-methylidene}-2-indolinone]
